Usually IC50 stands for the concentration that gives 50% inhibition. A word on the solubility: it is the concentration that dissolves in the medium under given conditions.

In brackets after ≈: the same amount, converted by molar mass. Activity calls are given as the source filed them. No cut-off for these calls is given here.

We go through ten compounds from ChEMBL document CHEMBL3352059, “Neuroprotective effects of a brain permeant 6-aminoquinoxaline derivative in cell culture conditions that model the loss of dopaminergic neurons in Parkinson disease” (Eur J Med Chem, 2015).

Data set [1] is filed under the species Rattus norvegicus. The data set is described as follows: Neuroprotective effect in Sprague-Dawley rat DA neurons after 10 days by immunofluorescence assay. Format: functional.
Data set [2] is filed under the species Rattus norvegicus. The data set is described as follows: Neuroprotective effect in Sprague-Dawley rat DA neurons assessed as developement of neuritic network after 10 days by microscopic analysis relative to control. Format: functional.
For data set [3], the species on record is Rattus norvegicus. The data set is described as follows: Neuroprotective effect in Sprague-Dawley rat DA neurons assessed as [3H]-DA uptake after 10 days by liquid scintillation spectrometry relative to control. Format: functional.
The species named for data set [4] is Rattus norvegicus. The data set can be described thus: Neuroprotective effect in Sprague-Dawley rat DA neurons at 10 uM under chronic oxidative stress condition. In kind it is functional.
Data set [5] can be described thus: Ratio of drug uptake from brain to plasma in C57BL/6J mouse at 150 mg/kg, po bid administered for 4 days followed by single dose on day 5 measured 1 hr post last dose. Format: ADME, organism-based. The arrangement: dose 150 mg/kg, route oral. Particulars: read-out: BPR.
The species named for data set [6] is Rattus norvegicus. The data set is described as follows: Neuroprotective effect in Sprague-Dawley rat DA neurons assessed as [3H]-DA uptake at 100 uM after 10 days by liquid scintillation spectrometry relative to control. Format: functional.
Data set [7] relates to Mus musculus. The data set is described as follows: Toxicity in C57BL/6J mouse assessed as change in body weight at 150 mg/kg, po bid administered for 4 days followed by single dose on day 5 […]. Format: organism-based. Also noted: dose 150 mg/kg, route oral. Particulars: in vivo, 96 h.
Data set [8] can be described thus: Antioxidant activity assessed as radical scavenging activity after 1 hr by ABTS competition assay. Format: physicochemical.
For data set [9], the species on record is Rattus norvegicus. The data set is described as follows: Neuroprotective effect in Sprague-Dawley rat DA neurons under chronic oxidative stress condition. In kind it is functional.
The species entered for data set [10] is Rattus norvegicus. The data set can be described thus: Neuroprotective effect in Sprague-Dawley rat DA neurons at 100 uM in presence of anti-GDNF antibody AB-212-NA. Format: functional.
Data set [11] relates to Nucleic Acid. The data set can be described thus: Ratio of drug uptake in C57BL/6J mouse striatum to cortical area at 75 mg/kg, po after 1 hr by MALDI-TOF mass spectrometry. In kind it is ADME, organism-based. Also noted: dose 75 mg/kg, route oral. Conditions: in vivo.
Data set [12] is filed under the species Rattus norvegicus. The data set is described as follows: Neuroprotective effect in Sprague-Dawley rat DA neurons assessed as developement of neuritic network at 100 uM after 10 days by microscopic analysis relative to control. In kind it is functional.
In data set [13] the test system is Brain. The data set can be described thus: Drug uptake in C57BL/6J mouse brain at 150 mg/kg, po bid administered for 4 days followed by single dose on day 5 measured 1 hr post last dose. In kind it is ADME, organism-based. The arrangement: dose 150 mg/kg, route oral. Conditions: in vivo.
For data set [14], the system named is Mus musculus. The data set is described as follows: Toxicity in C57BL/6J mouse assessed as behavioral change at 150 mg/kg, po bid administered for 4 days followed by single dose on day 5 […]. Conditions: in vivo, 96 h. In kind it is organism-based. The arrangement: dose 150 mg/kg, route oral.
The test system of data set [15] is Striatum. The data set can be described thus: Drug uptake in C57BL/6J mouse striatum at 75 mg/kg, po after 1 hr by MALDI-TOF mass spectrometry. Particulars: in vivo. The arrangement: dose 75 mg/kg, route oral. In kind it is ADME, organism-based.
The species named for data set [16] is Rattus norvegicus. The data set is described as follows: Antiproliferative activity at Sprague-Dawley rat DA neurons assessed as reduction of [3H]-thymidine incorporation at 50 to 100 uM after 8 days by liquid scintillation spectrometry. In kind it is functional. In general terms: Dividing cells build labelled thymidine or BrdU into new DNA.
For data set [17], the species on record is Rattus norvegicus. The data set is described as follows: Neuroprotective effect in Sprague-Dawley rat DA neurons at 100 uM after 10 days by immunofluorescence assay. In kind it is functional.
The nature of data set [18]: Drug uptake in C57BL/6J mouse ventral mesencephalon at 75 mg/kg, po after 1 hr by MALDI-TOF mass spectrometry. Format: ADME, organism-based. Also noted: dose 75 mg/kg, route oral. Conditions: in vivo.
The species named for data set [19] is Rattus norvegicus. The data set can be described thus: Neuroprotective effect in Sprague-Dawley rat DA neurons under GDNF deprived condition at 50 to 100 uM. Format: functional.
Data set [20] relates to Mus musculus. The data set can be described thus: Toxicity in C57BL/6J mouse assessed as change in food intake at 150 mg/kg, po bid administered for 4 days followed by single dose on day 5 […]. Format: organism-based. Also noted: dose 150 mg/kg, route oral. Particulars: in vivo, 96 h.
The test system of data set [21] is Brain. The data set is described as follows: Drug uptake in C57BL/6J mouse brain at 75 mg/kg, po after 1 hr by MALDI-TOF mass spectrometry. Conditions: in vivo. Also noted: dose 75 mg/kg, route oral. Format: ADME, organism-based.
The nature of data set [22]: Aqueous solubility of the compound at pH 7.4 after 5 mins by HPLC analysis. Format: physicochemical.
The species named for data set [23] is Rattus norvegicus. The data set is described as follows: Neuroprotective effect in Sprague-Dawley rat DA neurons at 10 uM after 10 days by immunofluorescence assay. Format: functional.
For data set [24], the species on record is Rattus norvegicus. The data set is described as follows: Neuroprotective effect in Sprague-Dawley rat DA neurons assessed as [3H]-DA uptake at 10 uM after 10 days by liquid scintillation spectrometry relative to control. Format: functional.
The species named for data set [25] is Rattus norvegicus. The data set is described as follows: Neuroprotective effect in Sprague-Dawley rat DA neurons assessed as developement of neuritic network at 10 uM after 10 days by microscopic analysis relative to control. Format: functional.
For data set [26], the species on record is Rattus norvegicus. The data set is described as follows: Antiproliferative activity at Sprague-Dawley rat DA neurons assessed as reduction of [3H]-thymidine incorporation at 1 mM after 8 days by liquid scintillation spectrometry. In kind it is functional.
The species named for data set [27] is Rattus norvegicus. The data set is described as follows: Neuroprotective effect in Sprague-Dawley rat DA neurons at 1 mM after 10 days by immunofluorescence assay. Format: functional.

Take `Nc1ccc2nccnc2c1`: the result in [1], in [2] and in data set [3] was inactive.
`CCCCc1cnc2ccc(N)cc2n1`: the outcome in data set [1], in data set [2] and in data set [3] was inactive.
Turning to `CCCCc1nc2cc(N)ccc2nc1C`, the result in data set [1], in data set [2] and in data set [3] was inactive.
Consider `Cc1cnc2cc(N)ccc2n1`, for which the outcome in [1], in data set [2] and in data set [3] was inactive.
With `Cc1nc2ccc(N)cc2nc1-c1ccccc1`, the outcome in data set [4], in data set [6], in data set [10], in data set [12], in data set [16] and in data set [17] was Active. In addition, the result in [19] was Active. Further, the Kp at 1 h in data set [5] was 1. Also, the Activity entry was “Non-toxic” in data set [7], “Dose-dependent effect” in data set [9], “Non-toxic” in data set [14] and “Non-toxic” in [20]. Also, the IC50 in [8] is 350 µM. For the same compound, the Ratio in data set [11] is reported as 2.7. The Drug uptake entry in [13], in data set [15], in [18] and in data set [21] was “Active” throughout. Moreover, in [22], the solubility at 5 min turned out to be 125 µM (≈ 29.4 µg/mL).
For the compound `CCCCCCCCCCCCCCCNc1ccc2nc(C)cnc2c1`, in [23], the outcome was inactive. Besides, the outcome in data set [24] and in data set [25] was Active. In addition, in data set [22], the concentration in solution (solubility at 5 min) was 5 µM (≈ 1.85 µg/mL).
For `CCCC(=O)Nc1ncnc2c1ncn2[C@@H]1O[C@@H]2COP(=O)(O)O[C@H]2[C@H]1OC(=O)CCC`, the outcome in [26] and in [27] was Active.
In the case of `CC(=O)N(O)CCCCCNC(=O)CCC(=O)N(O)CCCCCNC(=O)CCC(=O)N(O)CCCCCN`, the result in data set [4] was Active.
Turning to `Cc1c(C)c2c(c(C)c1O)CCC(C)(C(=O)O)O2` (configuration not stated) [TROLOX], the IC50 in data set [8] turned out to be 270 µM.
Turning to `CCCCCCc1nc2ccc(N)cc2nc1CCCC`, the outcome in data set [1], in data set [2] and in data set [3] was inactive.
